Laboratory results published in US8440638B2, “Compositions and methods for modulating calcium flux, glucose homeostasis and apoptosis” (Wisconsin Alumni Research Foundation, priority 2004, dated 2013).

What was measured:
pancreatic cells = details: not the result of inhibition of protein synthesis (ref. 47); cited from earlier work
[1] = tested on: cellular levels of OAADPr in HEK-293 cells; experiment: Detection of cellular OAADPr by HPLC fractionation and MALDI mass spectrometry; format: cell-based; details: puromycin-treated vs mock-treated HEK-293 cells
Experimental: Shown is the development of whole cell currents over time in TRPM2-expressing HEK-293 cells. Bath solution was standard ringer's, and pipette solution was Cs-based and included 10 mM EGTA to buffer intracellular Ca^2+ to 10 nM. The patch pipette contained various concentrations of (FIG. 1a) ADPr, (FIG. 1b) OAADPr (FIG. 1c) OAADPr and puromycin as indicated in the figure. FIG. 1d.) Cytoplasmic OAADPr esterase activity is inhibited by puromycin. 200 μM O-[^3H]AADPr and 0-100 μM puromycin were added to cytoplasmic HEK-293 extract for 30 min. Percent hydrolysis of O-[^3H]AADPr to [^3H]acetate was measured as described hereinbelow. FIG. 1e.) Nuclear OAADPr acetyltransferase activity is not inhibited by puromycin. HEK-293 nuclear extract was incubated with 200 μM O-[^3H]AADPr in the presence or absence of 100 μM puromycin for 60 min. The reactions were quenched and resolved by HPLC. The radioactivity in collected fractions was determined by liquid scintillation counting. FIGS. 1f-g.) In vivo detection of OAADPr. Mass spectrum of HEK-293 generated OAADPr (peak m/z of 602.0894; the theoretical m/z for OAADPr is 602.0895) after puromycin treatment, with authentic [^13C]-OAADPr (peak m/z of 603.0851 and isotopic distribution of 604.0878 and 605.0928) as a standard. Peak 599.3691 is from the matrix. […]

CRI-G1 cells = experiment: Cell viability assay (calcein fluorescence), CRI-G1 cells; format: cell-based, rat; details: 0-40 μM puromycin, 16 h
Experimental: FIG. 4 a) OAADPr gates the endogenous TRPM2 channel in CRI-G1 cells. Left panel: Evolution of currents in CRI-G1 cells in the absence (grey squares) or presence (black circles) of OAADPr (120-250 μM). Shown are average leak subtracted currents from n=3 cells for each condition. Right panel: Representative leak subtracted whole cell I/V curves for peak currents observed in the absence (grey line) and presence (black line) of OAADPr. For the above measurements, CRI-G1 cells were maintained in the whole cell patch clamp configuration as previously described for HEK-293 cells (44). b) Puromycin leads to cell death in CRI-G1 cells. CRI-G1 cells were treated with 0-40 μM puromycin for 16 h. Cell viability was assessed by measuring fluorescence of calcein in live cells. Data obtained from 4 independent experiments were plotted as a percent change in fluorescence compared to those of untreated cells set at a 100%. Error bars indicate the standard deviation from the mean. (Inset) Nicotinamide rescues puromycin-induced death in CRI-G1 cells. […] Cell viability was assessed 16 h later as described above. […] Calcein is retained in living, but not dead cells, where it undergoes catalytic conversion into a fluorescent compound Fluorescence in each well was measured in a microplate reader using excitation and emission filters at 485/530 nm, respectively.

## COc1ccc(C[C@H](N)C(=O)N[C@H]2[C@@H](O)[C@H](n3cnc4c(N(C)C)ncnc43)O[C@@H]2CO)cc1 [puromycin]
Pancreatic cells
  effect of puromycin treatment in whole rat: specific pancreatic cell death
[1]
  cellular levels of OAADPr after treatment: significantly detectable levels
CRI-G1 cells
  cell death of CRI-G1 cells: dose-dependent death
